Data as given in patent US20140309256A1, “Therapeutic Method” (FibroGen, Inc., priority 2011, published 2014).

How the values were obtained:
[1] = tested on: Human subjects with stage 3 or 4 chronic kidney disease; assay: Hemoglobin levels in chronic kidney disease patients treated orally with Compound A; assay type: in vivo; conditions: all groups A-D, oral, 16 or 24 weeks; all p<0.0001; dose-dependent
Description: No intravenous iron administration was allowed during the treatment, and subjects who had received more than one administration of IV iron within 12 weeks prior to randomization were excluded. […] Treatment was continued for weeks 5 through 16 with dose adjusted every 4 weeks to maintain hemoglobin of 11-13 g/dL (target Hb range). Group A continued dosing three time a week, Group B was switched to twice weekly dosing. Groups C (n=24) received a initial fixed dose of 50 mg, three times a week for 4 weeks and group D (n=24) received an initial fixed dose of 100 mg, three times a week. Treatment was continued for weeks 5 to 24 with dose adjusted to maintain hemoglobin of 10.5-12 g/dL (target Hb range). Hemoglobin and platelet counts were measured every 4 weeks.

[2] = tested on: Human subjects with stage 3 or 4 chronic kidney disease; assay: Platelet counts in chronic kidney disease patients treated orally with Compound A; assay type: in vivo
Description: No intravenous iron administration was allowed during the treatment, and subjects who had received more than one administration of IV iron within 12 weeks prior to randomization were excluded.
Groups A (n=24) and B (n=24) received an initial weight-adjusted dose of 60 mg (for subjects of 40 to 60 kg), 100 mg (for subjects of >60 to 90 kg), or 140 mg (for subjects of >90 to 140 kg), three times a week for 4 weeks. Treatment was continued for weeks 5 through 16 with dose adjusted every 4 weeks to maintain hemoglobin of 11-13 g/dL (target Hb range). Group A continued dosing three time a week, Group B was switched to twice weekly dosing.
Groups C (n=24) received a initial fixed dose of 50 mg, three times a week for 4 weeks and group D (n=24) received an initial fixed dose of 100 mg, three times a week. Treatment was continued for weeks 5 to 24 with dose adjusted to maintain hemoglobin of 10.5-12 g/dL (target Hb range). Hemoglobin and platelet counts were measured every 4 weeks.
In a separate analysis of the data from Example 1, all patient data on platelet count over time was combined and stratified into quartiles based on the baseline platelet count. Each quartile had n=24. Quartile 1 included the 24 patients with the lowest baseline platelet count. Quartile 2 included the 24 patients with the next highest baseline platelet count after the patients in quartile 1. Quartile 3 included the 24 patients with the next highest baseline platelet count after the patients in quartile 2. Quartile 4 included the 24 patients with the highest baseline platelet count.

PHD3 = PHD3 (Homo sapiens, UniProt Q9H6Z9); assay: HIF prolyl hydroxylase enzyme assay, PHD3; assay type: biochemical
Excerpt: (§1) Suitable assay methods are well known in the art.

PHD1 = PHD1 (Homo sapiens, UniProt Q96KS0); assay: HIF prolyl hydroxylase enzyme assay, PHD1; assay type: biochemical
Excerpt: as §1

treated subjects = conditions: treatment of anemia with ESA; cited from earlier work

Sequence of PHD3 (Q9H6Z9 whole entry): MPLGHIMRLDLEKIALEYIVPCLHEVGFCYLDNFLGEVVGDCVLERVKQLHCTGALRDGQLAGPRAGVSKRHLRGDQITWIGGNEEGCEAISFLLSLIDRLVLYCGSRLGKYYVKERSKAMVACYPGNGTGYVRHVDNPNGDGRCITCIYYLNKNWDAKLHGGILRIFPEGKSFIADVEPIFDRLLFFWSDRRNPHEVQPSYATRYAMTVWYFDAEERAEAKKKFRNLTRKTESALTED
Sequence of PHD1 (Q96KS0 whole entry): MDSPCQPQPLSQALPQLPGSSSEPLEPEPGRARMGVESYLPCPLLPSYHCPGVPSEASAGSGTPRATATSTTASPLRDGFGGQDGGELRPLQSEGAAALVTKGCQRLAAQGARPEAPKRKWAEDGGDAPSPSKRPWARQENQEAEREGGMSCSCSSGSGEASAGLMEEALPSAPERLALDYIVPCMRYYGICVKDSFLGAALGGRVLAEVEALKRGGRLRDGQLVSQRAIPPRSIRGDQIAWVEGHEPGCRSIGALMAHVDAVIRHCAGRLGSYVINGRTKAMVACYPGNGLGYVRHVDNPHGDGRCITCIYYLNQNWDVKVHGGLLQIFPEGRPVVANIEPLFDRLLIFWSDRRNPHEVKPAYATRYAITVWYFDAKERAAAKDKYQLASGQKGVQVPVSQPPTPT

Row | Compound | Mean hemoglobin concentrations, end of treatment vs. baseline [1] | Mean platelet count change from baseline to end of treatment ([2]; Group A, weight-adjusted dose three times a week, 16 weeks, baseline 267, p<0.0001) | Mean platelet count change from baseline to end of treatment ([2]; Group B, weight-adjusted dose, switched to twice weekly, 16 weeks, baseline 292, p<0.0001) | Mean platelet count change from baseline to end of treatment ([2]; Group C, initial fixed dose 50 mg three times a week, 24 weeks, baseline 255, p=0.89) | Mean platelet count change from baseline to end of treatment ([2]; Group D, initial fixed dose 100 mg three times a week, 24 weeks, baseline 231, p=0.30) | Mean change in platelet count from baseline to end of treatment, combined groups ([2]; week 17, p<0.0001) | Mean change in platelet count from baseline to end of treatment, combined groups ([2]; week 25, p=0.41) | Platelet count over course of treatment, stratified by baseline quartile ([2]; lower 3 quartiles, mean baseline 164.9, 224.8, 272.2 ×10^9/L) | Platelet count over course of treatment, stratified by baseline quartile ([2]; quartile 4 (highest), mean baseline 388.7×10^9/L) | IC50 (PHD3) | IC50 (PHD1) | Effect on platelet count in treated subjects (treated subjects)
1 | Cc1nc(C(=O)NCC(=O)O)c(O)c2ccc(Oc3ccccc3)cc12 [Compound A, [(4-hydroxy-1-methyl-7-phenoxy-isoquinoline-3-carbonyl)-amino]-acetic acid] | increased from the baseline | −46.55 1×10^9/L | −43.67 1×10^9/L | −1.69 1×10^9/L | −11.88 1×10^9/L | −30.05 | −6.94 | maintained at (or not significantly increased from) the baseline level | decreased from baseline | 200 to 2000 nM | 200 to 2000 nM | –
2 | epoetin beta: erythropoiesis-stimulating agent, recombinant human erythropoietin (rHuEPO) | – | – | – | – | – | – | – | – | – | – | – | increase platelet count
3 | epoetin α: erythropoiesis-stimulating agent, recombinant human erythropoietin (rHuEPO) | – | – | – | – | – | – | – | – | – | – | – | increase platelet count
